Source: patent US20230085307A1, “PYRIDAZINONE COMPOUND AND HERBICIDE” (NISSAN CHEMICAL CORPORATION, priority 2019, published 2023)

What was measured:
[1] = test system: Italian ryegrass; experiment: Test Example 4: herbicidal effect by soil treatment (Table 19, symbol K); type: in vivo, Italian ryegrass (Lolium multiflorum)
Method in brief: (§1)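 Herbicidal effect was rated 3 weeks after treatment, using the scoring criteria of an earlier test. The compound, formulated as an emulsion and diluted in water to a set herbicide amount, had been sprayed uniformly on soil over freshly sown seeds. Growth took place in a greenhouse at 25° C. to 30° C.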

[2] = test system: velvetleaf; experiment: Test Example 5: herbicidal effect by foliage application, plastic box (Table 20, symbol M); type: in vivo, velvetleaf (Abutilon theophrasti); conditions: foliage application, three weeks after application
Method in brief: (§2)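 Foliar spray test: emulsion formulation diluted in water to a set application rate, sprayed onto 14-day-old plants raised in diluvial soil at 25° C to 30° C under glass. Both herbicidal effect and crop effect rated visually three weeks later.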

[3] = test system: barnyard grass; experiment: Test Example 4: herbicidal effect by soil treatment (Table 19, symbol H); type: in vivo, barnyard grass (Echinochloa crus-galli)
Method in brief: as §1

[4] = test system: Chinese sprangletop; experiment: Test Example 3: herbicidal effect by foliage application, Wagner pot (Table 18, symbol D); type: in vivo, chinese sprangletop (Leptochloa chinensis)
Method in brief: (§3)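 Plants were sown in alluvial soil held under 0.1–0.5 cm standing water and grown 14 days in a greenhouse at 25–30 °C. An emulsifiable formulation, water-diluted to the set dose, was then sprayed onto the foliage, and effects were scored three weeks later using previously defined criteria.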

[5] = test system: barnyard grass; experiment: Test Example 5: herbicidal effect by foliage application, plastic box (Table 20, symbol H); type: in vivo, barnyard grass (Echinochloa crus-galli); conditions: foliage application, three weeks after application
Method in brief: as §2

[6] = test system: blackgrass; experiment: Test Example 4: herbicidal effect by soil treatment (Table 19, symbol J); type: in vivo, blackgrass (Alopecurus myosuroides)
Method in brief: as §1

[7] = test system: wild oat; experiment: Test Example 5: herbicidal effect by foliage application, plastic box (Table 20, symbol I); type: in vivo, wild oat (Avena fatua); conditions: foliage application, three weeks after application
Method in brief: as §2

[8] = test system: Italian ryegrass; experiment: Test Example 5: herbicidal effect by foliage application, plastic box (Table 20, symbol K); type: in vivo, Italian ryegrass (Lolium multiflorum); conditions: foliage application, three weeks after application
Method in brief: as §2

[9] = test system: Japanese bulrush; experiment: Test Example 2: herbicidal activity, application during weed generation under submerged conditions (Table 17, symbol B); type: in vivo, Japanese bulrush (Schoenoplectus juncoides); conditions: application during weed generation, submerged conditions
Method in brief: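 In this pot test, flooded alluvial soil (water depth 4 cm) holds all three species sown as a mixture. Once seedlings have one to two leaves, the compound's emulsion, thinned with water to the intended dose, is poured on the water; grading follows after three weeks on the earlier criteria.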

[10] = test system: rice flat sedge; experiment: Test Example 3: herbicidal effect by foliage application, Wagner pot (Table 18, symbol E); type: in vivo, rice flat sedge (Cyperus iria)
Method in brief: as §3

[11] = test system: lambsquarters; experiment: Test Example 4: herbicidal effect by soil treatment (Table 19, symbol O); type: in vivo, lambsquarters (Chenopodium album)
Method in brief: as §1

[12] = test system: green foxtail; experiment: Test Example 4: herbicidal effect by soil treatment (Table 19, symbol G); type: in vivo, green foxtail (Setaria viridis)
Method in brief: as §1

[13] = test system: blackgrass; experiment: Test Example 5: herbicidal effect by foliage application, plastic box (Table 20, symbol J); type: in vivo, blackgrass (Alopecurus myosuroides); conditions: foliage application, three weeks after application
Method in brief: as §2

[14] = test system: persian speedwell; experiment: Test Example 5: herbicidal effect by foliage application, plastic box (Table 20, symbol R); type: in vivo, Persian speedwell (Veronica persica); conditions: foliage application, three weeks after application
Method in brief: as §2

[15] = test system: windgrass; experiment: Test Example 5: herbicidal effect by foliage application, plastic box (Table 20, symbol L); type: in vivo, windgrass (Apera spica-venti); conditions: foliage application, three weeks after application
Method in brief: as §2

[16] = test system: lambsquarters; experiment: Test Example 5: herbicidal effect by foliage application, plastic box (Table 20, symbol O); type: in vivo, lambsquarters (Chenopodium album); conditions: foliage application, three weeks after application
Method in brief: as §2

[17] = test system: chickweed; experiment: Test Example 5: herbicidal effect by foliage application, plastic box (Table 20, symbol P); type: in vivo, common chickweed (Stellaria media); conditions: foliage application, three weeks after application
Method in brief: as §2

[18] = amount of applied herbicide 320 g/ha
[19] = amount of applied herbicide 224 g/ha

Row | Compound | K: Italian ryegrass, herbicidal effect grade [1, 18] | M: velvetleaf, herbicidal effect grade ([2]; 320 g/ha) | H: barnyard grass, herbicidal effect grade [3, 18] | herbicidal effect on Chinese sprangletop (D) ([4]; 320 g/ha) | H: barnyard grass, herbicidal effect grade ([5]; 320 g/ha) | J: blackgrass, herbicidal effect grade [6, 18] | I: wild oat, herbicidal effect grade ([7]; 320 g/ha) | K: Italian ryegrass, herbicidal effect grade ([8]; 320 g/ha) | herbicidal effect rating, B: Japanese bulrush ([9]; AAH 320 g/ha) | herbicidal effect on rice flat sedge (E) ([10]; 320 g/ha) | O: lambsquarters, herbicidal effect grade [11, 18] | G: green foxtail, herbicidal effect grade [12, 18] | J: blackgrass, herbicidal effect grade ([13]; 320 g/ha) | R: persian speedwell, herbicidal effect grade ([14]; 320 g/ha) | L: windgrass, herbicidal effect grade ([15]; 320 g/ha) | O: lambsquarters, herbicidal effect grade ([16]; 320 g/ha) | P: chickweed, herbicidal effect grade ([17]; 320 g/ha) | further results
1 | CCOc1ccccc1-c1sc2cc(Cl)ccc2c1-c1c(O)c(C)nn(C)c1=O [3-039] | 0 (Herbicidal rate of 5% or less (almost no effect)) | 5 (Herbicidal rate of 90% or more (almost completely withered)) | 4 (Herbicidal rate of 70% or more and less than 90%) | 3 (Herbicidal rate of 40% or more and less than 70%) | 5 (Herbicidal rate of 90% or more (almost completely withered)) | 0 (Herbicidal rate of 5% or less (almost no effect)) | 1 (Herbicidal rate of 5% or more and less than 20%) | 4 (Herbicidal rate of 70% or more and less than 90%) | 2 (Herbicidal rate of 20% or more and less than 40%) | 5 (Herbicidal rate of 90% or more (almost completely withered)) | 3 (Herbicidal rate of 40% or more and less than 70%) | 4 (Herbicidal rate of 70% or more and less than 90%) | 4 (Herbicidal rate of 70% or more and less than 90%) | 5 (Herbicidal rate of 90% or more (almost completely withered)) | 4 (Herbicidal rate of 70% or more and less than 90%) | 3 (Herbicidal rate of 40% or more and less than 70%) | 5 (Herbicidal rate of 90% or more (almost completely withered)) | –
2 | CCCC(=O)Oc1c(C)nn(C)c(=O)c1-c1c(-c2ccccc2OCC)sc2cc(Cl)ccc12 [3-040] | 0 (Herbicidal rate of 5% or less (almost no effect)) | 4 (Herbicidal rate of 70% or more and less than 90%) | 0 (Herbicidal rate of 5% or less (almost no effect)) | 0 (Herbicidal rate of 5% or less (almost no effect)) | 5 (Herbicidal rate of 90% or more (almost completely withered)) | 0 (Herbicidal rate of 5% or less (almost no effect)) | 1 (Herbicidal rate of 5% or more and less than 20%) | 0 (Herbicidal rate of 5% or less (almost no effect)) | 2 (Herbicidal rate of 20% or more and less than 40%) | 5 (Herbicidal rate of 90% or more (almost completely withered)) | 3 (Herbicidal rate of 40% or more and less than 70%) | 2 (Herbicidal rate of 20% or more and less than 40%) | 5 (Herbicidal rate of 90% or more (almost completely withered)) | 4 (Herbicidal rate of 70% or more and less than 90%) | 5 (Herbicidal rate of 90% or more (almost completely withered)) | 2 (Herbicidal rate of 20% or more and less than 40%) | 5 (Herbicidal rate of 90% or more (almost completely withered)) | –
3 | COc1cc(F)ccc1-c1sc2cc(Cl)ccc2c1-c1c(O)c(C)nn(C)c1=O [3-043] | 1 (Herbicidal rate of 5% or more and less than 20%) | 5 (Herbicidal rate of 90% or more (almost completely withered)) | 4 (Herbicidal rate of 70% or more and less than 90%) | 3 (Herbicidal rate of 40% or more and less than 70%) | 4 (Herbicidal rate of 70% or more and less than 90%) | 3 (Herbicidal rate of 40% or more and less than 70%) | 4 (Herbicidal rate of 70% or more and less than 90%) | 2 (Herbicidal rate of 20% or more and less than 40%) | 0 (Herbicidal rate of 5% or less (almost no effect)) | 5 (Herbicidal rate of 90% or more (almost completely withered)) | 5 (Herbicidal rate of 90% or more (almost completely withered)) | 4 (Herbicidal rate of 70% or more and less than 90%) | 5 (Herbicidal rate of 90% or more (almost completely withered)) | 5 (Herbicidal rate of 90% or more (almost completely withered)) | 5 (Herbicidal rate of 90% or more (almost completely withered)) | 4 (Herbicidal rate of 70% or more and less than 90%) | 5 (Herbicidal rate of 90% or more (almost completely withered)) | –
4 | CCOc1cc(F)ccc1-c1sc2cc(Cl)ccc2c1-c1c(O)c(C)nn(C)c1=O [3-045] | 0 (Herbicidal rate of 5% or less (almost no effect)) | 5 (Herbicidal rate of 90% or more (almost completely withered)) | 5 (Herbicidal rate of 90% or more (almost completely withered)) | 4 (Herbicidal rate of 70% or more and less than 90%) | 5 (Herbicidal rate of 90% or more (almost completely withered)) | 3 (Herbicidal rate of 40% or more and less than 70%) | 5 (Herbicidal rate of 90% or more (almost completely withered)) | 0 (Herbicidal rate of 5% or less (almost no effect)) | 2 (Herbicidal rate of 20% or more and less than 40%) | 5 (Herbicidal rate of 90% or more (almost completely withered)) | 4 (Herbicidal rate of 70% or more and less than 90%) | 4 (Herbicidal rate of 70% or more and less than 90%) | 4 (Herbicidal rate of 70% or more and less than 90%) | 5 (Herbicidal rate of 90% or more (almost completely withered)) | 5 (Herbicidal rate of 90% or more (almost completely withered)) | 3 (Herbicidal rate of 40% or more and less than 70%) | 5 (Herbicidal rate of 90% or more (almost completely withered)) | –
5 | CCCC(=O)Oc1c(C)nn(C)c(=O)c1-c1c(-c2ccccc2OC)sc2cc(C)ccc12 [3-050] | – | – | – | – | – | – | – | – | – | – | – | – | – | – | – | – | – | K: Italian ryegrass, herbicidal effect grade [1, 19]: 1 (Herbicidal rate of 5% or more and less than 20%); M: velvetleaf, herbicidal effect grade ([2]; 224 g/ha): 4 (Herbicidal rate of 70% or more and less than 90%); H: barnyard grass, herbicidal effect grade [3, 19]: 0 (Herbicidal rate of 5% or less (almost no effect)); herbicidal effect on Chinese sprangletop (D) ([4]; 224 g/ha): 3 (Herbicidal rate of 40% or more and less than 70%); H: barnyard grass, herbicidal effect grade ([5]; 224 g/ha): 4 (Herbicidal rate of 70% or more and less than 90%); J: blackgrass, herbicidal effect grade [6, 19]: 0 (Herbicidal rate of 5% or less (almost no effect)); I: wild oat, herbicidal effect grade ([7]; 224 g/ha): 4 (Herbicidal rate of 70% or more and less than 90%); K: Italian ryegrass, herbicidal effect grade ([8]; 224 g/ha): 4 (Herbicidal rate of 70% or more and less than 90%); herbicidal effect rating, B: Japanese bulrush ([9]; AAH 224 g/ha): 1 (Herbicidal rate of 5% or more and less than 20%); herbicidal effect on rice flat sedge (E) ([10]; 224 g/ha): 3 (Herbicidal rate of 40% or more and less than 70%); O: lambsquarters, herbicidal effect grade [11, 19]: 0 (Herbicidal rate of 5% or less (almost no effect)); G: green foxtail, herbicidal effect grade [12, 19]: 0 (Herbicidal rate of 5% or less (almost no effect)); J: blackgrass, herbicidal effect grade ([13]; 224 g/ha): 4 (Herbicidal rate of 70% or more and less than 90%); R: persian speedwell, herbicidal effect grade ([14]; 224 g/ha): 5 (Herbicidal rate of 90% or more (almost completely withered)); L: windgrass, herbicidal effect grade ([15]; 224 g/ha): 4 (Herbicidal rate of 70% or more and less than 90%); O: lambsquarters, herbicidal effect grade ([16]; 224 g/ha): 0 (Herbicidal rate of 5% or less (almost no effect)); P: chickweed, herbicidal effect grade ([17]; 224 g/ha): 5 (Herbicidal rate of 90% or more (almost completely withered))
